The source of these data is patent publication US10004701B2, “Methods and compositions for treating infection” (UNIVERSITY OF ROCHESTER, priority 2012, dated 2018).

Where a name gives a salt, the structure may show the parent alone. Read-outs that look alike come from different tables or passages of the source.

Holding throughout (experiment): AK assay 384-well format, Prestwick library screening
Test [1] deals with E. faecium. It counts as cell-based, Enterococcus faecium. As to conditions: 50 μM final drug concentration; for fold induction at 50 µM: Enterococcus faecium, 3 h.
Test [2] concerns S. aureus strain USA300-0114. It counts as cell-based, Staphylococcus aureus. The note with it: 50 μM final drug concentration; for fold induction at 50 µM: Staphylococcus aureus, USA300, 3 h.
For test [3], the system named is K. pneumoniae. It counts as cell-based, Klebsiella pneumoniae. As to conditions: 50 μM final drug concentration; for fold induction at 50 µM: Klebsiella pneumoniae, 3 h.
Test [4] concerns A. baumannii strain 98-37-09. It counts as cell-based, Acinetobacter baumannii. The note with it: 50 μM final drug concentration; for fold induction at 50 µM: Acinetobacter baumannii, 983709, 3 h.
In test [5] the test system is P. aeruginosa. The test is classed as cell-based, Pseudomonas aeruginosa. As to conditions: 50 μM final drug concentration; for fold induction at 50 µM: Pseudomonas aeruginosa, 3 h.
For test [6], the system named is E. cloacae. It counts as cell-based, Enterobacter cloacae. As to conditions: 50 μM final drug concentration; for fold induction at 50 µM: Enterobacter cloacae, 3 h.
Test [7] relates to E. coli. The test is classed as cell-based, Escherichia coli. As to conditions: 50 μM final drug concentration; for fold induction at 50 µM: Escherichia coli, 3 h.
[8] abbreviates: planktonic E. faecium, cutoff for positive-scoring molecules 3-fold increase, read-out: AK-based Prestwick Library Screening Results, E. faecium (increase in extracellular AK activity).
The mark [9] stands for this setting: planktonic S. aureus, cutoff for positive-scoring molecules 3-fold increase, read-out: AK-based Prestwick Library Screening Results, S. aureus (increase in extracellular AK activity).
[10] abbreviates: planktonic K. pneumoniae, cutoff for positive-scoring molecules 3-fold increase, read-out: AK-based Prestwick Library Screening Results, K. pneumoniae (increase in extracellular AK activity).
Setting [11] is: planktonic A. baumannii, cutoff for positive-scoring molecules 3-fold increase, read-out: AK-based Prestwick Library Screening Results, A. baumannii (increase in extracellular AK activity).
Setting [12] is: planktonic P. aeruginosa, cutoff for positive-scoring molecules 3-fold increase, read-out: AK-based Prestwick Library Screening Results, P. aeruginosa (increase in extracellular AK activity).
Where [13] appears, read: planktonic E. cloacae, cutoff for positive-scoring molecules 3-fold increase, read-out: AK-based Prestwick Library Screening Results, E. cloacae (increase in extracellular AK activity).
[14] abbreviates: planktonic E. coli, cutoff for positive-scoring molecules 3-fold increase, read-out: AK-based Prestwick Library Screening Results, E. coli (increase in extracellular AK activity).

Consider `CNCC(O)c1ccc(OC(=O)C(C)(C)C)c(OC(=O)C(C)(C)C)c1` (centres unmarked) [Dipivefrin hydrochloride], for which the fold induction at 50 µM in test [1] (planktonic, cutoff for positive 3-fold increase, read-out: AK-based Prestwick Library Screening Results, E. faecium (fold increase in extracellular AK activity)) was 1; in test [2] (planktonic, cutoff for positive 3-fold increase, read-out: AK-based Prestwick Library Screening Results, S. aureus (fold increase in extracellular AK activity)), 1.2; in test [3] (planktonic, cutoff for positive 3-fold increase, read-out: AK-based Prestwick Library Screening Results, K. pneumoniae (fold increase in extracellular AK activity)), 1.3; in test [4] (planktonic, cutoff for positive 3-fold increase, read-out: AK-based Prestwick Library Screening Results, A. baumannii (fold increase in extracellular AK activity)), 1.4; in test [5] (planktonic, cutoff for positive 3-fold increase, read-out: AK-based Prestwick Library Screening Results, P. aeruginosa (fold increase in extracellular AK activity)) it was 1.3; in test [6] (planktonic, cutoff for positive 3-fold increase, read-out: AK-based Prestwick Library Screening Results, E. cloacae (fold increase in extracellular AK activity)) it was 1.6. Besides, the fold induction at 50 µM in test [7] (planktonic, […], read-out: AK-based Prestwick Library Screening Results, E. coli (fold increase in extracellular AK activity)) came out at 1.4.

Take `C[C@]12CC[C@@H]3c4ccc(O)cc4CC[C@H]3[C@@H]1CC[C@@H]2O` [Estradiol-17 beta]: the “AK-based Prestwick Library Screening Results, E. faecium (increase in extracellular AK activity)” value in test [1] (planktonic E. faecium, cutoff for positive-scoring molecules 3-fold increase) came to 0.9. The “AK-based Prestwick Library Screening Results, S. aureus (increase in extracellular AK activity)” value in test [2] (planktonic S. aureus, cutoff for positive-scoring molecules 3-fold increase) came out at 0.8. The “AK-based Prestwick Library Screening Results, K. pneumoniae (increase in extracellular AK activity)” value in test [3] (planktonic K. pneumoniae, cutoff for positive-scoring molecules 3-fold increase) worked out at 0.8. Moreover, the “AK-based Prestwick Library Screening Results, A. baumannii (increase in extracellular AK activity)” value in test [4] (planktonic A. baumannii, cutoff for positive-scoring molecules 3-fold increase) stood at 0.8. In addition, in test [5] (planktonic P. aeruginosa, cutoff for positive-scoring molecules 3-fold increase), the “AK-based Prestwick Library Screening Results, P. aeruginosa (increase in extracellular AK activity)” value is given as 1.0. Besides, the “AK-based Prestwick Library Screening Results, E. cloacae (increase in extracellular AK activity)” value in test [6] (planktonic E. cloacae, cutoff for positive-scoring molecules 3-fold increase) is 1.3. Further, the “AK-based Prestwick Library Screening Results, E. coli (increase in extracellular AK activity)” value in test [7] (planktonic E. coli, cutoff for positive-scoring molecules 3-fold increase) turned out to be 1.1.

Consider `CCOC1O[C@H]([C@@H](COCc2ccccc2)OCc2ccccc2)[C@H](OCc2ccccc2)[C@H]1O` (some centres unmarked) [Tribenoside], for which the fold induction at 50 µM in test [1] (planktonic E. faecium, positive cutoff 3-fold increase, read-out: AK-based Prestwick library screening result, E. faecium (fold increase in extracellular AK activity)) was 1.1; in test [2] (planktonic S. aureus, positive cutoff 3-fold increase, read-out: AK-based Prestwick library screening result, S. aureus (fold increase in extracellular AK activity)), 0.6; in test [3] (planktonic K. pneumoniae, positive cutoff 3-fold increase, read-out: AK-based Prestwick library screening result, K. pneumoniae (fold increase in extracellular AK activity)), 0.9; in test [4] (planktonic A. baumannii, positive cutoff 3-fold increase, read-out: AK-based Prestwick library screening result, A. baumannii (fold increase in extracellular AK activity)) it was 1.7; in test [5] (planktonic P. aeruginosa, positive cutoff 3-fold increase, read-out: AK-based Prestwick library screening result, P. aeruginosa (fold increase in extracellular AK activity)), 1.1; in test [6] (planktonic E. cloacae, positive cutoff 3-fold increase, read-out: AK-based Prestwick library screening result, E. cloacae (fold increase in extracellular AK activity)), 1.5. Also, the fold induction at 50 µM in test [7] (planktonic E. coli, positive cutoff 3-fold increase, read-out: AK-based Prestwick library screening result, E. coli (fold increase in extracellular AK activity)) came to 0.9.

Take `CN(C)/N=N/c1[nH]cnc1C(N)=O` [Dacarbazine]: the fold induction at 50 µM in test [1] (setting [8]) came out at 1.1; in test [2] (setting [9]) it was 0.7; in test [3] (setting [10]) it was 3.8; in test [4] (setting [11]) it was 1.6; in test [5] (setting [12]) it was 0.9; in test [6] (setting [13]) it was 0.8. In test [7] (setting [14]), the fold induction at 50 µM was determined as 2.

In the case of `CN1C[C@H](CNC(=O)OCc2ccccc2)C[C@@H]2c3cccc4c3c(cn4C)C[C@H]21` [Metergoline], the fold induction at 50 µM in test [1] (setting [8]) is 1; in test [2] (setting [9]), 1.1; in test [3] (setting [10]), 1; in test [4] (setting [11]) it was 1.3; in test [5] (setting [12]), 1.1; in test [6] (setting [13]) it was 1.3. Besides, the fold induction at 50 µM in test [7] (setting [14]) was determined as 1.2.

Regarding `CCCN(CCC)C(=O)C(CCC(=O)O)NC(=O)c1ccccc1` (centres unmarked) [Proglumide], the fold induction at 50 µM in test [1] (planktonic E. faecium, 384-well, cutoff for positive-scoring molecules 3-fold increase, read-out: AK-based Prestwick Library Screening Results: E. faecium (increase in extracellular AK activity)) worked out at 1; in test [2] (planktonic S. aureus, 384-well, cutoff for positive-scoring molecules 3-fold increase, read-out: AK-based Prestwick Library Screening Results: S. aureus (increase in extracellular AK activity)), 1.1; in test [3] (planktonic K. pneumoniae, 384-well, cutoff for positive-scoring molecules 3-fold increase, read-out: AK-based Prestwick Library Screening Results: K. pneumoniae (increase in extracellular AK activity)), 1.2; in test [4] (planktonic A. baumannii, 384-well, cutoff for positive-scoring molecules 3-fold increase, read-out: AK-based Prestwick Library Screening Results: A. baumannii (increase in extracellular AK activity)) it was 1.3; in test [5] (planktonic P. aeruginosa, 384-well, cutoff for positive-scoring molecules 3-fold increase, read-out: AK-based Prestwick Library Screening Results: P. aeruginosa (increase in extracellular AK activity)) it was 1.1; in test [6] (planktonic E. cloacae, 384-well, cutoff for positive-scoring molecules 3-fold increase, read-out: AK-based Prestwick Library Screening Results: E. cloacae (increase in extracellular AK activity)), 1.5. The fold induction at 50 µM in test [7] (planktonic E. coli, 384-well, cutoff for positive-scoring molecules 3-fold increase, read-out: AK-based Prestwick Library Screening Results: E. coli (increase in extracellular AK activity)) was found to be 1.3.

Regarding `O.O=C(O)[C@@H]1[C@H]2C[C@H]3c4[nH]c5ccccc5c4CCN3C[C@@H]2CC[C@@H]1O` [Yohimbinic acid monohydrate], the “AK-based Prestwick Library Screening Results, E. faecium (increase in extracellular AK activity)” value in test [1] (planktonic E. faecium, […]) turned out to be 0.9. Further, the “AK-based Prestwick Library Screening Results, S. aureus (increase in extracellular AK activity)” value in test [2] (planktonic S. aureus, […]) is reported as 0.7. Also, the “AK-based Prestwick Library Screening Results, K. pneumoniae (increase in extracellular AK activity)” value in test [3] (planktonic K. pneumoniae, […]) came to 0.7. Further, in test [4] (planktonic A. baumannii, […]), the “AK-based Prestwick Library Screening Results, A. baumannii (increase in extracellular AK activity)” value is listed as 0.8. Besides, the “AK-based Prestwick Library Screening Results, P. aeruginosa (increase in extracellular AK activity)” value in test [5] (planktonic P. aeruginosa, […]) amounted to 0.9. In addition, the “AK-based Prestwick Library Screening Results, E. cloacae (increase in extracellular AK activity)” value in test [6] (planktonic E. cloacae, […]) was 0.9. Also, the “AK-based Prestwick Library Screening Results, E. coli (increase in extracellular AK activity)” value in test [7] (planktonic E. coli, […]) is given as 0.9.

Take `O=C(O)c1cc(-c2ccc(F)cc2F)ccc1O` [Diflunisal]: the fold induction at 50 µM in test [1] (384-well format, […], read-out: AK-based Prestwick Library Screening Results, E. faecium (increase in extracellular AK activity)) was determined as 0.9; in test [2] (384-well format, […], read-out: AK-based Prestwick Library Screening Results, S. aureus (increase in extracellular AK activity)) it was 0.6; in test [3] (384-well format, […], read-out: AK-based Prestwick Library Screening Results, K. pneumoniae (increase in extracellular AK activity)), 0.6; in test [4] (384-well format, […], read-out: AK-based Prestwick Library Screening Results, A. baumannii (increase in extracellular AK activity)) it was 0.7; in test [5] (384-well format, […], read-out: AK-based Prestwick Library Screening Results, P. aeruginosa (increase in extracellular AK activity)), 0.6; in test [6] (384-well format, […], read-out: AK-based Prestwick Library Screening Results, E. cloacae (increase in extracellular AK activity)), 1.2. Besides, the fold induction at 50 µM in test [7] (384-well format, […], read-out: AK-based Prestwick Library Screening Results, E. coli (increase in extracellular AK activity)) came to 0.7.
